This passage reports GI50 and TGI results from PubChem BioAssay (NCI).

Test systems include UO-31 renal; HOP-62 NSCLC; A498 renal; MDA-MB-435; CAKI-1 renal; LOX IMVI melanoma; PC-3 prostate; HCC-2998 colon; OVCAR-3 ovarian; HL-60(TB) leukemia.
Assay in all cases: DTP human tumour cell line panel, 48 h

SMILES strings stand for the structures.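 Values below derive from 48-hour exposures of cells grown in 96-well plates, with endpoints linearly interpolated between the two concentrations bracketing the appropriate inhibition level. Abbreviation: GI50, concentration required for 50% inhibition of growth. TGI is the concentration that stops growth completely.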

Usually GI50 stands for the concentration that inhibits growth by half. The term TGI denotes the concentration giving total growth inhibition. The low end stands for greater sensitivity of the cells, the high end for lower sensitivity of the cells. Regarding `CCN1CCN(C(=O)[C@]23CCC(C)(C)C[C@@H]2C2=CC[C@@H]4[C@@]5(C)C/C(=C/c6ccncc6)C(=O)C(C)(C)[C@@H]5CC[C@@]4(C)[C@]2(C)CC3)CC1`, the GI50 was 1.24 µM in the assay on UO-31 renal; 1.72 µM with HOP-62 NSCLC; 1.7 µM with A498 renal; 1.41 µM with MDA-MB-435; 1.45 µM with CAKI-1 renal; 1.4 µM in the assay with LOX IMVI melanoma. The GI50 in the assay on PC-3 prostate was 0.833 µM; in the assay on HCC-2998 colon, 1.47 µM; in the assay on OVCAR-3 ovarian, 1.49 µM; in the assay on HL-60(TB) leukemia, 1.04 µM. The concentration for total growth inhibition (TGI) in the assay on UO-31 renal worked out at 2.5 µM; in the assay on HOP-62 NSCLC, 3.3 µM; with A498 renal it was 3.1 µM; with MDA-MB-435, 2.81 µM; in the assay with CAKI-1 renal, 2.95 µM; with LOX IMVI melanoma, 2.8 µM. Further, the TGI with PC-3 prostate amounted to 2.2 µM; with HCC-2998 colon, 2.89 µM; with OVCAR-3 ovarian it was 2.91 µM; in the assay with HL-60(TB) leukemia it was 4.4 µM.

In the case of `c1ccc2c3c([nH]c2c1)C(c1ccc(C2NCCc4c2[nH]c2ccccc42)cc1)NCC3` (stereo not given), the GI50 was 1.04 µM in the assay with UO-31 renal; 1.31 µM in the assay with HOP-62 NSCLC; 1.64 µM in the assay with A498 renal; 0.359 µM in the assay on MDA-MB-435; 1.66 µM in the assay with CAKI-1 renal; 0.196 µM in the assay with LOX IMVI melanoma. In addition, the GI50 in the assay with PC-3 prostate is 1.27 µM; in the assay on HCC-2998 colon, 0.274 µM; with OVCAR-3 ovarian, 1.24 µM; with HL-60(TB) leukemia it was 1.13 µM. For the same compound, the TGI turned out to be 2.26 µM in the assay with UO-31 renal; 2.8 µM in the assay with HOP-62 NSCLC; 8.87 µM in the assay with A498 renal; 1.27 µM in the assay on MDA-MB-435; 4.03 µM with CAKI-1 renal; 0.45 µM in the assay with LOX IMVI melanoma. For the same compound, the total growth inhibition concentration (TGI) in the assay with PC-3 prostate was determined as 2.69 µM; in the assay with HCC-2998 colon it was 1.28 µM; in the assay on OVCAR-3 ovarian it was 2.6 µM; in the assay on HL-60(TB) leukemia, 2.81 µM.

Regarding `CC(=O)[O][Hg][c]1c(C)c(C)cc(C)c1C`, the GI50 with UO-31 renal was 1.68 µM; in the assay on HOP-62 NSCLC it was 2.02 µM; with A498 renal it was 2.09 µM; in the assay on MDA-MB-435 it was 1.27 µM; in the assay on CAKI-1 renal, 2.03 µM; in the assay with LOX IMVI melanoma it was 1.21 µM. Besides, the GI50 is 1.73 µM with PC-3 prostate, 1.37 µM in the assay with HCC-2998 colon, 1.36 µM with OVCAR-3 ovarian and 0.704 µM in the assay with HL-60(TB) leukemia. Besides, the TGI worked out at 3.25 µM with UO-31 renal; 4.05 µM in the assay on HOP-62 NSCLC; 4.38 µM in the assay on A498 renal; 2.74 µM with MDA-MB-435; 5.4 µM in the assay with CAKI-1 renal; 3.06 µM in the assay on LOX IMVI melanoma. Also, the TGI in the assay on PC-3 prostate was found to be 4.5 µM; with HCC-2998 colon it was 2.72 µM; in the assay on OVCAR-3 ovarian, 2.71 µM; with HL-60(TB) leukemia, 2.61 µM.

`COc1ccc(/C(C#N)=C2C=C/C(=N/O)c3ccccc3\2)cc1`: the GI50 in the assay with UO-31 renal is 0.593 µM; in the assay on HOP-62 NSCLC it was 0.376 µM; in the assay on A498 renal it was 2.21 µM; in the assay with MDA-MB-435, 0.0388 µM; with CAKI-1 renal, 0.608 µM; with LOX IMVI melanoma it was 0.382 µM. The GI50 in the assay with PC-3 prostate is 0.322 µM; in the assay with HCC-2998 colon it was 0.346 µM; in the assay with OVCAR-3 ovarian, 0.314 µM; in the assay with HL-60(TB) leukemia, 0.254 µM. The TGI in the assay with UO-31 renal is 15.3 µM; in the assay with HOP-62 NSCLC, 16 µM; in the assay on A498 renal, 6.75 µM; in the assay with MDA-MB-435, 0.179 µM; with CAKI-1 renal, 26.1 µM; in the assay on LOX IMVI melanoma, 14.7 µM. For the same compound, the TGI with PC-3 prostate was 15.7 µM; in the assay on HCC-2998 colon, 1.44 µM; with OVCAR-3 ovarian it was 2.79 µM; with HL-60(TB) leukemia, 0.688 µM.

In the case of `CCc1nc(N)nc(N)c1-c1ccc(N2CCNCC2)cc1`, the TGI in the assay with UO-31 renal, with HOP-62 NSCLC, in the assay with A498 renal, with MDA-MB-435, with CAKI-1 renal and with LOX IMVI melanoma was over 100 µM throughout. Moreover, the total growth inhibition concentration (TGI) with PC-3 prostate was over 100 µM; with HCC-2998 colon it was over 100 µM; with OVCAR-3 ovarian, over 100 µM; in the assay on HL-60(TB) leukemia, over 71 µM.

In the case of `CN1CSC(=S)N(Cc2ccccc2)C1`, the GI50 in the assay with UO-31 renal is 7.93 µM; in the assay with HOP-62 NSCLC it was 18.6 µM; with A498 renal, 0.017 µM; in the assay with MDA-MB-435, 3.58 µM; in the assay on CAKI-1 renal, 34.6 µM; in the assay with LOX IMVI melanoma it was 2.75 µM. Moreover, the GI50 in the assay on PC-3 prostate is 42.4 µM; in the assay on HCC-2998 colon it was 71 µM; with OVCAR-3 ovarian, 3.96 µM; in the assay on HL-60(TB) leukemia, 4.03 µM. Further, the TGI is 21.5 µM with UO-31 renal; over 100 µM with HOP-62 NSCLC; 31.2 µM with A498 renal; 19.8 µM in the assay with MDA-MB-435; over 100 µM in the assay with CAKI-1 renal; 11.6 µM in the assay with LOX IMVI melanoma. The TGI in the assay with PC-3 prostate is over 100 µM; in the assay with HCC-2998 colon, over 100 µM; in the assay on OVCAR-3 ovarian, 15 µM; in the assay with HL-60(TB) leukemia it was 97.3 µM.

In the case of `c1cc2c(cn1)Nc1ccncc1S2`, the GI50 in the assay on UO-31 renal was 23.5 µM; in the assay with HOP-62 NSCLC, 14.9 µM; with A498 renal, 19.5 µM; in the assay on MDA-MB-435, 73.9 µM; in the assay on CAKI-1 renal, over 100 µM; with LOX IMVI melanoma, 33.2 µM. The GI50 is 41.7 µM with PC-3 prostate, 49.8 µM in the assay with HCC-2998 colon, 83 µM with OVCAR-3 ovarian and 20.5 µM in the assay on HL-60(TB) leukemia. Besides, the TGI with UO-31 renal was over 100 µM; in the assay on HOP-62 NSCLC, 57.4 µM; in the assay on A498 renal, 55.4 µM; with MDA-MB-435, over 100 µM; in the assay on CAKI-1 renal, over 100 µM; in the assay with LOX IMVI melanoma, over 100 µM. Moreover, the TGI in the assay on PC-3 prostate was over 100 µM; with HCC-2998 colon, over 100 µM; in the assay on OVCAR-3 ovarian it was over 100 µM; in the assay with HL-60(TB) leukemia, 68.5 µM.

Turning to `O=c1[nH]cnc2c1nnn2CCCCCCCCCCCCn1nnc2c(=O)[nH]cnc21`, the TGI in the assay with UO-31 renal was over 100 µM; in the assay with HOP-62 NSCLC it was 54 µM; in the assay on A498 renal it was 53.6 µM; in the assay with MDA-MB-435 it was over 100 µM; in the assay on CAKI-1 renal, over 100 µM; with LOX IMVI melanoma, over 100 µM. Further, the total growth inhibition concentration (TGI) in the assay on PC-3 prostate, in the assay with HCC-2998 colon, in the assay on OVCAR-3 ovarian and in the assay on HL-60(TB) leukemia was over 100 µM in each case.
